Where two headings read alike, the source gives them in different places.
How the values were obtained:
LNCaP cell line = experiment: Chelate permeability: fluorescence of cytoplasm and membrane fractions; format: cell-based, human
T84 cell line = experiment: as above; format: cell-based, human; settings: 1 mM chelate, 2 h, Table 4
Caco-2 cell line = experiment: as above; format: cell-based, human
[1] = tested on: HEK293 cells, normal (non-induced); experiment: Permeability of chelates to HEK293 cells, fluorescence of fractions; format: cell-based, human; settings: HEK293 Normal; 1 mM chelate, 2 hours
Experimental: (§1) The human kidney transformed HEK293 cells (obtained from the ATCC) were grown in Eagle's Minimum Essential Medium (EMEM) supplemented with 10% (v/v) heat-inactivated fetal bovine serum, sodium pyruvate, nonessential amino acids and antibiotics in a humidified 5% CO2 atmosphere at 37° C. Medium and supplements were purchased from Gibco bRL (Grand Island, N.Y.). Etoposide was obtained from Sigma (St. Louis, Mo.) and prepared as 20 mM solution in dimethyl sulfoxide (DMSO). For treatments, etoposide was applied to the HEK293 cultures at 1:1000 dilution (final concentration of 20 μM) after cell became 75% confluent. As a control, cells were fed with medium containing 0.1% DMSO in the absence of etoposide. After treatment with etoposide, cells were incubated in a humidified 5% CO2 at 37° C. for 24 hours. HEK293 cells were collected by removing treatment medium and washed 2 times with 10 mM HEPES buffer. Final cell pellets were resuspended in a small amount of HEPES and stored at 4° C. for further study.
(§2) Cells were grown to confluence in T-150 flasks (about 2×10^6 cells). […] After treatment, the chelate or analogue supernatant was discarded and the cells were rinsed three times at room temperature with 10 mM HEPES. Cells were then removed from the flask by manual scraping. Cells were transferred to a 50-mL conical tube and centrifuged (400×g) for 5 minutes and the test material removed. Remaining cells were rinsed twice with cold 10 mM HEPES. Cells were used in cell binding assays.

[2] = tested on: etoposide-induced (apoptotic) HEK293 cells; experiment: Permeability of chelates to apoptotic cells, fluorescence of fractions; format: cell-based, human
Experimental: as §1, §2

C33-A cells = settings: 1 mM EuQCTME, up to 240 min
Experimental: (§3) Cells were counted and plated in a 20×100 mm cell culture dish at a density of about 2×10^6 cells.
(§4) After incubation cells were collected by trypsinization and gently centrifuged (about […]) for 10 minutes. The cell supematant was discarded, and the resulting cell pellet was washed in cold PBS (phosphate buffered saline). The cell pellet was centrifuged again (about 2000 rpm) for 10 minutes. The PBS supernatant was discarded and the cold PBS wash was repeated and centrifuged as above. After discarding the PBS supernatant, the resulting cell pellet was used for NE-PER extraction (Pierce, Rockford, Ill.) according to the manufacturer's instructions.
(§5) The resulting nuclear and cytoplasmic fractions from each time point were then placed into the wells of a 96-well white plate. Due to the volume of lysate available for measurement, the fractions were diluted 1:4 in HEPES binding buffer for a total volume of 100 liL. […] The following settings were optimized for measurement: excitation at 320 nm (band width: 35 nm), emission at 595 nm (bandwidth: 35 nm), gain 110, lag time 1 μs, integration time 2000 μs, # of flashes: 1.
(§6) Because lysate volume was in limited quantity and protein concentration was relatively low, absorbances for protein measurements were read using the formula of Kalckar (1.45 OD280-0.74OD260=mg protein/mL). Each time point measurement above (in RFU) was normalized to its corresponding protein content and recalculated as RFU/μg protein.

Caco-2 cells = settings: 1 mM EuQCTME, up to 240 min
Experimental: as §3, §4, §5, §6

DU-145 cells = settings: 1 mM EuQCTME, up to 240 min
Experimental: as §3, §4, §5, §6

HLAC cells [3] = settings: 1 mM EuQCTME, up to 240 min
Experimental: as §3, §4, §5, §6

NCM460 cells = settings: 1 mM EuQCTME, up to 240 min
Experimental: as §3, §4, §5, §6

SK-MES cells = settings: 1 mM EuQCTME, up to 240 min
Experimental: as §3, §4, §5, §6

DU145 cells = settings: for EuQCTME Cell Binding (fluorescence per well): 1 mM
HLAC cells [4] = settings: for EuQCTME Cell Binding (fluorescence per well): 1 mM
HSPC194 protein = HSPC194 protein (Homo sapiens, UniProt Q9P0S9); experiment: Elution of HSPC194 from affinity support column by compounds; settings: symbols not defined
[5] = 0-2000 μM, 2 hours, compared to PZ-HPV-7

Sequence of HSPC194 protein (Q9P0S9 whole entry): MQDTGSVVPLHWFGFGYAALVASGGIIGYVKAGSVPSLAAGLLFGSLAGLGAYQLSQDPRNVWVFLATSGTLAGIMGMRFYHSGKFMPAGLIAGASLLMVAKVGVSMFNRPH

## CCOP(=O)([O-])CN1CCN(Cc2ccc3cc(C)ccc3n2)CCN(CP(=O)([O-])OCC)CCN(CP(=O)([O-])OCC)CC1.[Eu+3] [Eu-QCTME, Eu(III) N-(6-methyl-2-quinolylmethyl)-N′,N″,N′″-tris(methylenephosphonic acid ethyl ester)-1,4,7,10-tetraazacyclododecane]
LNCaP cell line; [5]
  fluorescence in the cytoplasm, dose response: significant increases in fluorescence
LNCaP cell line; 1 mM chelate, 2 h, Table 4
  Fluorescence/mg Cytoplasm: 3881
  Fluorescence/mg Membrane: 2561
T84 cell line
  Fluorescence/mg Cytoplasm: 4548
  Fluorescence/mg Membrane: 2307
Caco-2 cell line; 0-2000 μM, 2 hours
  fluorescence in the membrane fractions, dose response: detectable quantity of fluorescence
Caco-2 cell line; [5]
  fluorescence in the cytoplasm, dose response: significant increases in fluorescence
Caco-2 cell line; 1 mM chelate, 2 h, Table 4
  Fluorescence/mg Cytoplasm: 4339
  Fluorescence/mg Membrane: 2524
[1]
  Fluorescence/mg Membrane: 1799
[2]
  permeability to apoptotic induced HEK293 cells: permeable
[2]; HEK293 Apoptotic (etoposide 20 μM, 24 hours), 1 mM chelate, 2 hours
  Fluorescence/mg Membrane: 1697
C33-A cells
  nuclear signal: very low
Caco-2 cells
  nuclear and cytoplasmic fluorescence: approximately 40 pg EuQCTME per μg protein
DU-145 cells
  nuclear and cytoplasmic fluorescence: approximately 40 pg EuQCTME per μg protein
HLAC cells [3]
  nuclear signal: rapidly declined after an apparent initial burst
NCM460 cells
  cytoplasm-associated fluorescence: < 10 pg EuQCTME per μg protein
  nuclear signal: high nuclear signal
SK-MES cells
  nuclear and cytoplasmic fluorescence: approximately 40 pg EuQCTME per μg protein
DU145 cells; 2 min
  EuQCTME Cell Binding (fluorescence per well): 27,884
DU145 cells; 5 min
  EuQCTME Cell Binding (fluorescence per well): 10,040
DU145 cells; 15 min
  EuQCTME Cell Binding (fluorescence per well): 747
DU145 cells; 30 min
  EuQCTME Cell Binding (fluorescence per well): 19,868
DU145 cells; 45 min
  EuQCTME Cell Binding (fluorescence per well): 10,987
DU145 cells; 60 min
  EuQCTME Cell Binding (fluorescence per well): 3,235
DU145 cells; 120 min
  EuQCTME Cell Binding (fluorescence per well): 15,644
DU145 cells; 180 min
  EuQCTME Cell Binding (fluorescence per well): 9,038
DU145 cells; 240 min
  EuQCTME Cell Binding (fluorescence per well): 2,506
DU145 cells; over 240 min
  Totals: Normalized total area under each curve (AUC): 49
HLAC cells [4]; 2 min
  EuQCTME Cell Binding (fluorescence per well): 15,807
HLAC cells [4]; 5 min
  EuQCTME Cell Binding (fluorescence per well): 20,493
HLAC cells [4]; 15 min
  EuQCTME Cell Binding (fluorescence per well): 13,704
HLAC cells [4]; 30 min
  EuQCTME Cell Binding (fluorescence per well): 6,300
HLAC cells [4]; 45 min
  EuQCTME Cell Binding (fluorescence per well): 10,068
HLAC cells [4]; 60 min
  EuQCTME Cell Binding (fluorescence per well): 3,206
HLAC cells [4]; 120 min
  EuQCTME Cell Binding (fluorescence per well): 21,877
HLAC cells [4]; 180 min
  EuQCTME Cell Binding (fluorescence per well): 6,510
HLAC cells [4]; 240 min
  EuQCTME Cell Binding (fluorescence per well): 2,401
HLAC cells [4]; over 240 min
  Totals: Normalized total area under each curve (AUC): 51
Human cancer cell lines
  cancer cell lines significantly inhibited compared to control: 8 of 10 cancer cell lines were significantly inhibited
Human cancer cell lines; read-out: Half-maximum growth inhibition concentration, range over examined cancer cell lines, 96 hour continuous exposure
  IC50: 16 to 140 µM
Human cancer cell lines; up to 48 hours, most malignant cell lines
  time course cytotoxicity: lack of measurable cytotoxicity
HSPC194 protein; compound at 10 μM
  Elution of HSPC194 10 μM: 0
HSPC194 protein; compound at 50 μM
  Elution of HSPC194 50 μM: 0

Reference: patent US20060210479A1 (Dow Global Technologies Inc., priority 2004, published 2006)
